{
  "source": "paper PMC6455008",
  "about": "“Methylation at the C-3′ in D-Ring of Strigolactone Analogs Reduces Biological Activity in Root Parasitic Plants and Rice” (Frontiers in Plant Science, 2019)",
  "key": {"rice d10 mutant": {"test_system": "rice d10 mutant", "assay": "Rice micro tillering bioassay (d10 mutant, hydroponic)", "assay_type": "in vivo", "conditions": "for inhibition at 2.5 µM: Oryza sativa, read-out: tillering inhibition; for number of tillers per plant: SL-deficient d10 mutant, hydroponic, twice a week up to 3 weeks, untreated d10 six tillers", "experimental": "Rice seeds (d10) were sterilized with 2.5% sodium hypochlorite for 15 min. After thorough washing with sterile MilliQ water, the seeds were kept in water for 2 days at 30°C in the dark for imbibition and pre-germination. The pre-germinated seeds were then transferred to moist filter paper in 90-mm petri plates and incubated at 30°C overnight. The plates with germinated seeds were then shifted in a growth cabinet with fluorescent white light (130–180 μM m^−2 s^−1) for 1 week. Seven days-old seedlings were moved to 50-ml falcon tubes (one seedling per tube) containing modified half-strength Hoagland nutrient solution in greenhouse. After 1 week, rice plants were treated with 2.5 μM of each SL analog. Mock and GR24 (2.5 μM) were included as control treatments. Six applications of each SL analog were done two times in a week. After 3 weeks of application, number of tillers per plant, plant height, and fresh biomass were measured at final harvest."}, "ShHTL7": {"biological_target": "T1, ShHTL7 (Striga hermonthica, UniProt A0A0M3PNA2)", "T1 sequence (A0A0M3PNA2 1-271)": "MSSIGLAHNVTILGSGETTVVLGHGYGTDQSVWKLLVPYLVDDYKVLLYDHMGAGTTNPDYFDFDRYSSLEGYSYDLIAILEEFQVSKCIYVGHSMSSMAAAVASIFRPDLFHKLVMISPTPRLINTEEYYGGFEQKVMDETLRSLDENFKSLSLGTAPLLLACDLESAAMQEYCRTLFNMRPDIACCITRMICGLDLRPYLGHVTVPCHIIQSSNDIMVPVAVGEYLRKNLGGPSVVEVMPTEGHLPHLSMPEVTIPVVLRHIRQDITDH", "assay": "In vitro YLG hydrolysis competition assay, ShHTL7", "assay_type": "biochemical", "conditions": "3.0 μM protein, 1.0 μM YLG, 60 min, room temperature; read-out: IC50, competitive inhibition of ShHTL7-mediated YLG hydrolysis", "experimental": "Protein expression and purification of ShHTL7 and Oryza sativa D14 (OsD14) was carried out according to the procedure described earlier ([Jamil et al., 2018]). In vitro Yoshimulactone Green (YLG) hydrolysis assays ([Tsuchiya et al., 2015]) were carried out using 3.0 μM of protein ShHTL7 and OsD14 in a reaction buffer (1X PBS buffer, pH 7.3) with 0.1% DMSO at a 100-μl volume on a 96-well black plate (Greiner). For competitive assays, rac-GR24, AR8, MP13, and MP26 (at range between 0.01 and 50 μM) were co-incubated with 1.0 μM of YLG (Tokyo Chemical Industry Co. Ltd., product number E1238) for 60 min at room temperature. Fluorescent intensity was measured by spectraMax i5 (Molecular Devices) at excitation by 480 nm and detection by 520 nm. The change in fluorescence observed over the course of 1 h of YLG in buffer without protein was subtracted from the data collected in presence of protein. IC50 values were calculated by GraphPad (Prism 7)."}, "Striga": {"test_system": "Striga", "assay": "Striga emergence after formulated MP13 in naturally infested farmer's field (pearl millet host)", "assay_type": "in vivo", "experimental": "A naturally Striga-infested farmer’s field was selected near Kouaré research station ([…], 0°30′W) (Fada N’Gourma, Burkina Faso) to test suicidal activity of formulated MP13, taking formulated water treatment as control treatment. After onset of few rains, the field was thoroughly prepared by subsequent ploughing and planking. The experiment was laid out in a randomized complete block design with four plots or replications. Each plot consisted of two 3-m-long mounds and spaced with one mound between rows. Formulated MP13 and normal water (control) were applied twice in each plot (25 ml m^−2) following rains (~10 mm) to get a final concentration of 0.5 μM. Local pearl millet crop was sown at least 1 week after the second application. Data on the number of emerged Striga plants at three counting dates were collected in both fields on a plot basis. The three Striga counts were then used to calculate the average number of emerged Striga plants throughout the season."}, "Arabidopsis seedlings": {"test_system": "Arabidopsis seedlings", "assay": "Arabidopsis hypocotyl elongation assay", "assay_type": "in vivo", "conditions": "compared to control seedlings; for inhibition of hypocotyl growth (reduction in hypocotyl length): 1.0 μM", "experimental": "The sterilized Arabidopsis seeds were grown in petri plates that were first kept at 4°C in darkness for 3 days. For hypocotyl study, the petri plates were exposed to continuous white light for 24 h, then transferred to continuous monochromatic red light (20 μmol m^−2 s^−1, 22°C) conditions for another 4 days. For lateral root density, the plates were vertically grown at 22°C in Percival incubator under long day conditions (16 h at 22°C/8 h at 16°C day/night, 60% relative humidity, 60–70 μmol m^−2 s^−1 white light) for 8 days. After scanning, the hypocotyl length and number of lateral roots were recorded using publicly available ImageJ software.^1"}},
  "data": [
    {"compound": "CC1=CC(O/C=C(\\C)C=O)OC1=O", "note": "(centres unmarked) [MP13, (E)-2-methyl-3-[(4-methyl-5-oxo-2,5-dihydrofuran-2-yl)oxy]acrylaldehyde]", "values": [
      {"measurement": "inhibition at 2.5 µM", "setting": "rice d10 mutant", "result": 23, "unit": "%"},
      {"measurement": "number of tillers per plant", "setting": "rice d10 mutant; 2.5 μM", "result": 4.5, "unit": "tillers per plant"},
      {"measurement": "IC50", "setting": "ShHTL7", "result": "3.87 ± 0.9", "unit": "µM"},
      {"measurement": "Striga emergence (No. per plot), change vs control", "setting": "Striga; formulated MP13, 0.5 μM, printed in Figure 8E", "result": -41, "unit": "%"},
      {"measurement": "Striga plants counted at the end of the season", "setting": "Striga; formulated MP13 applied twice, final conc. 0.5 μM, pearl millet, mock field 154", "result": 91, "unit": "plants m^−2"},
      {"measurement": "inhibition of hypocotyl growth (reduction in hypocotyl length)", "setting": "Arabidopsis seedlings", "result": "did not lead to a significant effect"}
    ]},
    {"compound": "CC1=C(C)C(O/C=C(\\C)C=O)OC1=O", "note": "(centres unmarked) [AR8, reference compound]", "values": [
      {"measurement": "number of tillers per plant", "setting": "rice d10 mutant; 2.5 μM", "result": 5.6, "unit": "tillers per plant"},
      {"measurement": "IC50", "setting": "ShHTL7", "result": "6.9 ± 0.97", "unit": "µM"},
      {"measurement": "inhibition of hypocotyl growth (reduction in hypocotyl length)", "setting": "Arabidopsis seedlings", "result": "did not lead to a significant effect"}
    ]},
    {"compound": "COC(=O)/C=C/C(C)=C/OC1C=C(C)C(=O)O1", "note": "(centres unmarked) [MP26, (2E,4E)-methyl 4-methyl-5-(4-methyl-5-oxo-2,5-dihydrofuran-2-yloxy)penta-2,4-dienoate]", "values": [
      {"measurement": "inhibition at 2.5 µM", "setting": "rice d10 mutant", "result": 57, "unit": "%"},
      {"measurement": "number of tillers per plant", "setting": "rice d10 mutant; 2.5 μM", "result": 2.5, "unit": "tillers per plant"},
      {"measurement": "plant height compared to mock", "setting": "rice d10 mutant; d10 mutant, 2.5 μM", "result": "significant increase in plant height"},
      {"measurement": "IC50", "setting": "ShHTL7", "result": "5.3 ± 0.71", "unit": "µM"},
      {"measurement": "inhibition at 1 µM", "setting": "Arabidopsis seedlings; Arabidopsis thaliana, read-out: inhibition of hypocotyl growth (reduction in hypocotyl length)", "result": 15, "unit": "%"}
    ]}
  ]
}
